Measurements as given in US8344008B2 (Janssen Pharmaceutica NV, priority 2007, dated 2013).
Structures can show the parent of a compound that is named as a salt.

Molecular target: T1, recombinant human LTA4 hydrolase (rhLTA4H) (Homo sapiens, UniProt P09960)
T1 construct: made in house; host or cells: Spodoptera frugiperda (Sf-9) cells, baculovirus (pFastBac1)
T1 sequence (P09960 1-611): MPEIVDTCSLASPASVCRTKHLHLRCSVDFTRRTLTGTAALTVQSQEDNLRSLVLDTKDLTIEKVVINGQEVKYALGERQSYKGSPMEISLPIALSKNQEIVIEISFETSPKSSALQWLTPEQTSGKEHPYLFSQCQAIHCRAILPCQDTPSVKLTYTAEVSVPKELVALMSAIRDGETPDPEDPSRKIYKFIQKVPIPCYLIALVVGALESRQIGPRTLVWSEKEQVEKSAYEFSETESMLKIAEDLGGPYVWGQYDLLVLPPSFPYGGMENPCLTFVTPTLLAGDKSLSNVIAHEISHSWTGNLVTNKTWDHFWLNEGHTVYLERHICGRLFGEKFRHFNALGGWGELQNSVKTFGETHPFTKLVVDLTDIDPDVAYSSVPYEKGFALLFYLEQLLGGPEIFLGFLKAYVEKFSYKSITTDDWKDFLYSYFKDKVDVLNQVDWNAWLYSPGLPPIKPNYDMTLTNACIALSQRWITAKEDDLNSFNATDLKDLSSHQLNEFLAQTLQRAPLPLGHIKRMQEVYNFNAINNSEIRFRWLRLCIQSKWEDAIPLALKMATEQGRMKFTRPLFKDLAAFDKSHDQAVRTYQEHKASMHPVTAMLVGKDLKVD
Assay: Recombinant Human LTA4 Hydrolase Assay for LTA4 Hydrolase Inhibitor Activity
Type: biochemical
Conditions: average of results obtained; LTB4 quantified by enzyme-linked immunoassay
Method in brief: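 LTB4 formation, quantified by EIA after 10 min at rt, was the read-out once 9 ng LTA4 (free acid) was added to recombinant human enzyme (36 ng, Sf-9 expressed) that had sat 10 min with compound. Buffer: 0.1 M potassium phosphate pH 7.4 with fatty-acid-free BSA; IC50 by 4-parameter fit.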

Row | Structure (SMILES) | Ki [nM]
1 | O=C(N1C[C@@H]2C[C@H]1CN2CCc1ccc(Oc2nc3ccccc3s2)cc1)C1(O)CC1 [Example 16] | 11
2 | CS(=O)(=O)N1CCC2CN(Cc3ccc(Oc4nc5ccccc5s4)cc3)CC2C1 (centres unmarked) [Example 130, 2-[4-(5-Methanesulfonyl-octahydro-pyrrolo[3,4-c]pyridin-2-ylmethyl)-phenoxy]-benzothiazole] | 21
3 | CC(=O)N1C[C@H]2C[C@@H]1CN2CCOc1ccc(Oc2nc3ccc(Cl)cc3s2)cc1 [Example 177, (R,R)-1-(5-{2-[4-(6-Chloro-benzothiazol-2-yloxy)-phenoxy]-ethyl}-2,5-diaza-bicyclo[2.2.1]hept-2-yl)-ethanone] | 94
4 | CS(=O)(=O)N1CC2CCC(C1)N2CCOc1ccc(Oc2nc3cc(Cl)ccc3s2)cc1 [Example 256, meso-5-Chloro-2-{4-[2-(3-methanesulfonyl-3,8-diaza-bicyclo[3.2.1]oct-8-yl)-ethoxy]-phenoxy}-benzothiazole] | 1710
5 | NC(=O)N[C@@H]1C[C@H]2CC[C@@H](C1)N2CCOc1ccc(Oc2nc3ccc(Cl)cc3s2)cc1 [Example 234, meso-exo-(8-{2-[4-(6-Chloro-benzothiazol-2-yloxy)-phenoxy]-ethyl}-8-aza-bicyclo[3.2.1]oct-3-yl)-urea] | 72
6 | NC(=O)N1C[C@@H]2C[C@H]1CN2Cc1ccc(Oc2nc3ccccc3s2)cc1F [Example 80, (S,S)-5-[4-(Benzothiazol-2-yloxy)-2-fluoro-benzyl]-2,5-diaza-bicyclo[2.2.1]heptane-2-carboxylic acid amide] | 60
7 | CC(=O)N1[C@@H]2CC[C@H]1C[C@H](NCCOc1ccc(Oc3nc4cccc(F)c4s3)cc1)C2 [Example 263, meso-exo-1-(3-{2[4-(7-Fluoro-benzothiazole-2-yloxy)-phenoxy]-ethylamino}8-aza-bicyclo[3.2.1]oct-8-yl)-ethanone] | 190
8 | CS(=O)(=O)N1C2CCC1CN(Cc1ccc(Oc3nc4ccccc4s3)cc1)C2 [Example 57, meso-2-[4-(8-Methanesulfonyl-3,8-diaza-bicyclo[3.2.1]oct-3-ylmethyl)-phenoxy]-benzothiazole] | 173
9 | CS(=O)(=O)N1[C@@H]2CC[C@H]1C[C@H](NCCOc1ccc(Oc3nc4c(F)cccc4s3)cc1)C2 [Example 213, meso-exo-{2-[4-(4-Fluoro-benzothiazol-2-yloxy)-phenoxy]-ethyl}-(8-methanesulfonyl-8-aza-bicyclo[3.2.1]oct-3-yl)-amine] | 20
10 | NC(=O)N1CC2CCN(Cc3ccc(Oc4nc5ccccc5s4)cc3)CC2C1 (racemic) [Example 141, (±)-5-[4-(Benzothiazol-2-yloxy)-benzyl]-octahydro-pyrrolo[3,4-c]pyridine-2-carboxylic acid amide] | 35
11 | O=C(C1CCOC1)N1CC2CN(Cc3ccc(Oc4nc5ccccc5s4)cc3)CC2C1 (centres unmarked) [Example 102, {5-[4-(Benzothiazol-2-yloxy)-benzyl]-hexahydro-pyrrolo[3,4-c]pyrrol-2-yl}-(tetrahydro-furan-3-yl)-methanone] | 46
12 | CS(=O)(=O)N1CC2CCC(C1)N2CCc1ccc(Oc2nc3cc(F)ccc3s2)cc1 [Example 210, meso-5-Fluoro-2-{4-[2-(3-methanesulfonyl-3,8-diaza-bicyclo[3.2.1]oct-8-yl)-ethyl]-phenoxy}-benzothiazole] | 163
13 | c1ccc2sc(Oc3ccc(CN4CCC5CNCC5C4)cc3)nc2c1 (centres unmarked) [Example 85, 2-[4-(Octahydro-pyrrolo[3,4-c]pyridin-5-ylmethyl)-phenoxy]-benzothiazole hydrochloride] | 450
14 | CC(=O)N1C[C@@H]2C[C@H]1CN2CCc1cccc(Oc2nc3ccccc3s2)c1 [Example 8, (S,S)-1-(5-{2-[3-(Benzothiazol-2-yloxy)-phenyl]-ethyl}-2,5-diaza-bicyclo[2.2.1]hept-2-yl)-ethanone] | 206
15 | CS(=O)(=O)N1C[C@@H]2C[C@H]1CN2CCc1cccc(Oc2nc3ccccc3s2)c1 [Example 48, (S,S)-2-{3-[2-(5-Methanesulfonyl-2,5-diaza-bicyclo[2.2.1]hept-2-yl)-ethyl}phenoxy]benzothiazole] | 1170
16 | CC(=O)N[C@H]1C[C@H]2CC[C@@H](C1)N2Cc1ccc(Oc2nc3c(F)cccc3s2)cc1F [Example 160, meso-endo-N-{8-[2-Fluoro-4-(4-fluoro-benzothiazol-2-yloxy)-benzyl]-8-aza-bicyclo[3.2.1]oct-3-yl}-acetamide] | 1

Row | Structure (SMILES) | Ki [nM]
17 | O=S(=O)(c1ccco1)N1CC2CN(Cc3ccc(Oc4nc5ccccc5s4)cc3)CC2C1 (centres unmarked) [Example 121, 2-{4-[5-(Furan-2-sulfonyl)-hexahydro-pyrrolo[3,4-c]pyrrol-2-ylmethyl]-phenoxy}-benzothiazole] | 631
18 | CS(=O)(=O)N1[C@@H]2CC[C@H]1C[C@H](NCCc1ccc(Oc3nc4c(Cl)cccc4s3)cc1)C2 [Example 237, meso-exo-{2-[4-(4-Chloro-benzothiazol-2-yloxy)-phenyl]-ethyl}-(8-methanesulfonyl-8-aza-bicyclo[3.2.1]oct-3-yl)-amine] | 244
19 | O=S(=O)(C1CC1)N1CC2CN(Cc3ccc(Oc4nc5ccccc5s4)cc3)CC2C1 (centres unmarked) [Example 126, 2-[4-(5-Cyclopropanesulfonyl-hexahydro-pyrrolo[3,4-c]pyrrol-2-ylmethyl)-phenoxy]-benzothiazole] | 17
20 | CS(=O)(=O)N1C[C@@H]2C[C@H]1CN2CCOc1ccc(Oc2nc3ccccc3s2)cc1 [Example 49, (S,S)-2-{4-[2-(5-Methanesulfonyl-2,5-diaza-bicyclo[2.2.1]hept-2-yl)-ethoxy]-phenoxy}-benzothiazole] | 20
21 | CC(=O)N1CCC2CN(Cc3ccc(Oc4nc5ccccc5s4)cc3)CC2C1 (centres unmarked) [Example 89, 1-{2-[4-(Benzothiazol-2-yloxy)-benzyl]-octahydro-pyrrolo[3,4-c]pyridin-5-yl}-ethanone] | 6
22 | O=C(CO)N1C[C@@H]2C[C@H]1CN2CCOc1ccc(Oc2nc3ccccc3s2)cc1 [Example 23, (S,S)-1-(5-{2-[4-(Benzothiazol-2-yloxy)-phenoxy]-ethyl}-2,5-diaza-bicyclo[2.2.1]hept-2-yl)-2-hydroxy-ethanone] | 26
23 | NC(=O)N1CC2CCN(Cc3ccc(Oc4nc5ccccc5s4)cc3)CC2C1 (single isomer, unassigned; (-)) [Example 142B, (−)-5-[4-(Benzothiazol-2-yloxy)-benzyl]-octahydro-pyrrolo[3,4-c]pyridine-2-carboxylic acid amide] | 95
24 | CC(=O)N[C@H]1C[C@H]2CC[C@@H](C1)N2Cc1ccc(Oc2nc3c(F)cccc3s2)cc1 [Example 68, meso-endo-N-{8-[4-(4-Fluoro-benzothiazol-2-yloxy)-benzyl]-8-aza-bicyclo[3.2.1]oct-3-yl}-acetamide] | 2
25 | NC(=O)N1[C@@H]2CC[C@H]1C[C@H](NCCc1ccc(Oc3nc4c(F)cccc4s3)cc1)C2 [Example 212, meso-exo-3-{2-[4-(4-Fluoro-benzothiazol-2-yloxy)-phenyl]-ethylamino}-8-aza-bicyclo[3.2.1]octane-8-carboxylic acid amide] | 248
26 | NC(=O)N1[C@@H]2CC[C@H]1C[C@@H](NCc1ccc(Oc3nc4cccc(F)c4s3)cc1)C2 [Example 226, meso-endo-3-[4-(7-Fluoro-benzothiazol-2-yloxy)-benzylamino]-8-aza-bicyclo[3.2.1]octane-8-carboxylic acid amide] | 90
27 | CC(=O)N1C[C@@H]2C[C@H]1CN2Cc1ccc(Oc2nc3cc(F)ccc3s2)cc1 [Example 170, (S,S)-1-{5-[4-(5-Fluoro-benzothiazol-2-yloxy)-benzyl]-2,5-diaza-bicyclo[2.2.1]hept-2-yl}-ethanone] | 90
28 | CS(=O)(=O)N1CC2CCC(C1)N2CCOc1ccc(Oc2nc3ccc(F)cc3s2)cc1 [Example 243, meso-6-Fluoro-2-{4-[2-(3-methanesulfonyl-3,8-diaza-bicyclo[3.2.1]oct-8-yl)-ethoxy]-phenoxy}-benzothiazole] | 61
29 | CC(C)(C)OC(=O)NC1(C(=O)N2C[C@@H]3C[C@H]2CN3CCOc2ccc(Oc3nc4ccccc4s3)cc2)CC1 [Example 66, (S,S)-[1-(5-{2-[4-(Benzothiazol-2-yloxy)-phenoxy]-ethyl}-2,5-diaza-bicyclo[2.2.1]heptane-2-carbonyl)-cyclopropyl]-carbamic acid tert-butyl ester] | 191
30 | CS(=O)(=O)N1C[C@@H]2C[C@H]1CN2CCc1ccc(Oc2nc3cccc(F)c3s2)cc1 [Example 232, (S,S)-7-Fluoro-2-{4-[2-(5-methanesulfonyl-2,5-diaza-bicyclo[2.2.1]hept-2-yl)-ethyl]-phenoxy}-benzothiazole] | 72
31 | O=C(C1CC1)N1CC2CN(Cc3ccc(Oc4nc5ccccc5s4)cc3)CC2C1 (centres unmarked) [Example 111, {5-[4-(Benzothiazol-2-yloxy)-benzyl]-hexahydro-pyrrolo[3,4-c]pyrrol-2-yl}-cyclopropyl-methanone] | 10
32 | NC(=O)N[C@H]1C[C@H]2CC[C@@H](C1)N2Cc1ccc(Cc2nc3ccccc3o2)cc1 [Example 37, meso-endo-[8-(4-Benzooxazol-2-ylmethyl-benzyl)-8-aza-bicyclo[3.2.1]oct-3-yl]-urea] | 44
